Laboratory results: publication PMC10455239, “Antimicrobial, Cytotoxic, and α-Glucosidase Inhibitory Activities of Ethanol Extract and Chemical Constituents Isolated from Homotrigona apicalis Propolis—In Vitro and Molecular Docking Studies” (Life, 2023)
In brackets after ≈: the same amount, converted by molar mass. Like-named read-outs stand apart in the source and are kept apart here.

What was measured:
[1] = tested on: Candida albicans; assay: Antimicrobial activity, broth microdilution; type: cell-based; details: for IC50: Candida albicans, read-out: IC50 C. albicans
Description: (§1) The antimicrobial activity assay was performed using the broth microdilution method. Dimethyl sulfoxide (DMSO) was used for the preparation of compound solutions at concentrations of 256 μg/mL, 64 μg/mL, 16 μg/mL, 4 μg/mL, and 1 μg/mL. Three strains of Gram-positive bacteria (Staphylococcus aureus, Bacillus cereus, and Lactobacillus fermentum); three strains of Gram-negative bacteria (Salmonella enterica, Escherichia coli, and Pseudomonas aeruginosa), and fungus Candida albicans (obtained from the American Type Culture Collection (ATCC)) were used for the test. Ampicillin, Cefotaxim, and Nystatin were used as positive controls for the Gram (+) bacterial and Gram (−) bacterial strains and C. albicans, respectively. The activity of the isolated compounds was expressed as an IC50 value (half-maximal inhibitory concentration). The IC50 values were calculated using the program […].

[2] = tested on: Bacillus cereus; assay: Antimicrobial activity, broth microdilution; type: cell-based; details: read-out: IC50 B. cereus
Description: as §1

[3] = tested on: Pseudomonas aeruginosa; assay: Antimicrobial activity, broth microdilution; type: cell-based; details: Pseudomonas aeruginosa, read-out: IC50 P. aeruginosa
Description: as §1

[4] = tested on: Escherichia coli; assay: Antimicrobial activity, broth microdilution; type: cell-based; details: Escherichia coli, read-out: IC50 E. coli
Description: as §1

[5] = tested on: Lactobacillus fermentum; assay: Antimicrobial activity, broth microdilution; type: cell-based; details: read-out: IC50 L. fermentum
Description: as §1

[6] = tested on: Salmonella enterica; assay: Antimicrobial activity, broth microdilution; type: cell-based; details: Salmonella enterica; Gram (−) strain; read-out: IC50 S. enterica
Description: as §1

[7] = tested on: Staphylococcus aureus; assay: Antimicrobial activity, broth microdilution; type: cell-based; details: read-out: IC50 S. aureus
Description: as §1

[8] = tested on: A-549 (human lung adenocarcinoma); assay: Cytotoxicity assay (MTT); type: cell-based; details: read-out: IC50 A-549
Description: (§2) The cytotoxic assays were evaluated in triplicate against three cancer cell lines, namely KB (epidermal carcinoma), A-549 (human lung adenocarcinoma), and HepG-2 (human hepatoma) (ATCC), with a modification of the previously published method. The cells were cultured in Dulbecco’s D-MEM medium (Gibco, Life Technologies Corporation, Grand Island, NY, USA), supplemented with 10% fetal calf serum (Sigma-Aldrich, St. Loius, MO, USA), L-glutamine (2 mM) (Sigma-Aldrich, St. Loius, MO, USA), penicillin G (100 UI/mL), and streptomycin (100 μg/mL) (Sigma-Aldrich, St. Loius, MO, USA). The compound solutions were prepared in DMSO, and the cytotoxic assays were conducted in 96-well microtiter plates against the cancer cells (3 × 10^5 cells/mL concentration). After 48 h incubation at 37 °C in an air/CO2 (95:5) atmosphere, with or without isolated compounds, MTT reagent was added to each well (0.5 mg/mL). The cell growth was assessed by measuring the colorimetric of formazan at 570 nm using a microplate reader. […] Ellipticine was used as a positive reference.

[9] = tested on: HepG-2 (human hepatoma); assay: Cytotoxicity assay (MTT); type: cell-based; details: read-out: IC50 Hep-G2
Description: as §2

[10] = tested on: KB (epidermal carcinoma); assay: Cytotoxicity assay (MTT); type: cell-based; details: read-out: IC50 KB
Description: as §2

[11] = target: T1, α-glucosidase (Saccharomyces cerevisiae, UniProt P53341); assay: biochemical
T1 construct: purchased Sigma-Aldrich G0660
Description: An assay for the α-glucosidase inhibitory activity was carried out by a modification of the published method. Briefly, solutions of α-glucosidase (Saccharomyces cerevisiae, G0660, Sigma-Aldrich, St. Louis, MO, USA) and p-nitrophenyl α-D-glucopyranoside (Sigma-Aldrich, St. Louis, MO, USA) were prepared in a phosphate buffer (100 mM, pH 6.8, Sigma-Aldrich, St. Louis, MO, USA). […] The compound solution (2 μL) and 40 µL of enzyme solution (0.5 U/mL) in 120 µL phosphate buffer were mixed. After 5 min of preincubation, 20 µL of 10 mM p-nitrophenyl α-D-glucopyranoside prepared in phosphate buffer was added, and the reaction mixture was incubated for 30 min at 37 °C. The reaction was quenched by the addition of 80 µL of 0.2 M Na2CO3. The absorbance of the released p-nitrophenol was measured at 410 nm using a Biotek reader. The % inhibition was calculated using the following equation:Inhibition (%) = [1 − (Asample/Acontrol)] ∗ 100
The IC50 values of the isolated compounds were calculated using the program Table Curve.

[12] = tested on: Gram (+) bacterial strains; assay: Antibacterial activity, range over strains; type: cell-based; details: range over strains and compounds
Description: as §1

[13] = tested on: KB, HepG-2, and A-549 cancer cell lines; assay: Cytotoxicity assay (MTT), range over the three cell lines; type: cell-based; details: range over three cell lines and both xanthones
Description: as §2

[14] = target: α-glucosidase; details: cited from earlier work
[15] = IC50 (Table S1), Table S1, α-glucosidase
[16] = IC50 α-Glucosidase Inhibitory Activity, p-nitrophenyl α-D-glucopyranoside, pH 6.8, 37 °C

T1 sequence (P53341 whole entry): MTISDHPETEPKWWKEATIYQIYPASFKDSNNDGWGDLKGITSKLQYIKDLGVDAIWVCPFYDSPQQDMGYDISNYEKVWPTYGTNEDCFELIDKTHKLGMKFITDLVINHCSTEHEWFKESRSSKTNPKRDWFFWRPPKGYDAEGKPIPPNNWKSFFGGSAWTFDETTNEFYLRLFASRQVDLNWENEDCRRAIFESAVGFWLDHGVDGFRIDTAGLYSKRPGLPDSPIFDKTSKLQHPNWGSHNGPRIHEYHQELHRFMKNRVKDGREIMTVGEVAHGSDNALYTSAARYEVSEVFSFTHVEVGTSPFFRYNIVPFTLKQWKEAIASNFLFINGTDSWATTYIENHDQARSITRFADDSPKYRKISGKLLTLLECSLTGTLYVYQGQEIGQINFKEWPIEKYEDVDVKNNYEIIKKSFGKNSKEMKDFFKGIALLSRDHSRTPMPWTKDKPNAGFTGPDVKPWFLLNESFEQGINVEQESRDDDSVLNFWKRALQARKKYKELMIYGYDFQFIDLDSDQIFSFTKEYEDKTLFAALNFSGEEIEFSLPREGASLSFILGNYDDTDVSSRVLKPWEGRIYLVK

| Compound | IC50 [6] [µg/mL] | IC50 [11, 15] [µM] | IC50 [11, 16] [µM] | IC50 ([1]; Fungus) [µg/mL] | IC50 ([2]; Gram (+) strain) [µg/mL] | IC50 ([3]; Gram (−) strain) [µg/mL] | IC50 ([4]; Gram (−) strain) [µg/mL] | IC50 ([5]; Gram (+) strain) [µg/mL] | IC50 ([7]; Gram (+) strain) [µg/mL] | IC50 ([8]; A549, MTT, 48 h incubation) [µg/mL] | IC50 ([9]; HepG2, MTT, 48 h incubation) [µg/mL] | IC50 ([10]; MTT, 48 h incubation) [µg/mL] | IC50 [12] [µg/mL] | also measured |
| --- | --- | --- | --- | --- | --- | --- | --- | --- | --- | --- | --- | --- | --- | --- |
| CC(=O)O[C@H]1CC[C@]2(C)[C@H]3CC=C4[C@@H]5CC(C)(C)CC[C@]5(C(=O)O)CC[C@@]4(C)[C@]3(C)CC[C@H]2C1(C)C [Compound 5, acetyl oleanolic acid] | > 256 | 16.9 | 16.9 | – | – | – | – | – | – | – | – | – | – | IC50 [1]: > 256 µg/mL; IC50 [2]: > 256 µg/mL; IC50 [3]: > 256 µg/mL; IC50 [4]: > 256 µg/mL; IC50 [5]: 49.9 ± 1.06 µg/mL (≈ 100 µM); IC50 [7]: > 256 µg/mL; IC50 ([8]; A549, 48 h): > 128 µg/mL; IC50 ([9]; HepG2, 48 h): > 128 µg/mL; IC50 ([10]; 48 h): > 128 µg/mL |
| CC(C)=CCC[C@H](C(=O)O)[C@@H]1CC[C@]2(C)C3=C(CC[C@@]12C)[C@@]1(C)CC[C@@H](O)C(C)(C)[C@@H]1CC3 [Compound 6, 3α-hydroxytirucalla-8,24-dien-21-oic acid] | > 256 | > 561 | > 561 | – | – | – | – | – | – | – | – | – | – | IC50 [1]: > 256 µg/mL; IC50 [2]: 141 ± 4.14 µg/mL (≈ 308 µM); IC50 [3]: > 256 µg/mL; IC50 [4]: > 256 µg/mL; IC50 [5]: 62.2 ± 1.24 µg/mL (≈ 136 µM); IC50 [7]: > 256 µg/mL; IC50 ([8]; A549, 48 h): 78.6 ± 7.69 µg/mL (≈ 172 µM); IC50 ([9]; HepG2, 48 h): 77.7 ± 8.09 µg/mL (≈ 170 µM); IC50 ([10]; 48 h): 49.3 ± 5.21 µg/mL (≈ 108 µM) |
| C[C@H]1[C@H](C)CC[C@]2(C(=O)O)CC[C@]3(C)C(=CC[C@@H]4[C@@]5(C)CC[C@H](O)C(C)(C)[C@@H]5CC[C@]43C)[C@H]12 [Compound 7, ursolic acid] | > 256 | – | – | > 256 | 10.2 ± 0.67 (≈ 22.3 µM) | > 256 | > 256 | 10.6 ± 0.7 (≈ 23.2 µM) | 7.1 ± 0.25 (≈ 15.5 µM) | > 128 | > 128 | > 128 | 0.56 to 17.3 (≈ 1.23 to 37.9 µM) | – |
| CC(C)=CCC/C(C)=C/Cc1c(O)c(CC=C(C)C)c(O)c2c(=O)c3cc(O)ccc3oc12 [Compound 8, cochinchinone A] | > 256 | – | – | 65.3 ± 3.54 (≈ 146 µM) | 7.99 ± 0.33 (≈ 17.8 µM) | 35.4 ± 2.03 (≈ 79 µM) | > 256 | 8.67 ± 0.38 (≈ 19.3 µM) | 17.3 ± 0.87 (≈ 38.6 µM) | 20.3 ± 1.34 (≈ 45.3 µM) | 17.4 ± 1.03 (≈ 38.7 µM) | 29.3 ± 2.07 (≈ 65.3 µM) | 0.56 to 17.3 (≈ 1.25 to 38.6 µM) | IC50 [13]: 7.55 to 29.3 µg/mL (≈ 16.8 to 65.3 µM); IC50 ([11]; Table S1, α-glucosidase, read-out: IC50 (Table S1) (converted)): 20.2 µM |
| COc1c(O)cc2oc3cc(O)c(CC=C(C)C)c(O)c3c(=O)c2c1CC=C(C)C [Compound 9, α-mangostin] | 16.3 ± 0.78 (≈ 39.8 µM) | 4.63 | 4.63 | 0.56 ± 0.06 (≈ 1.36 µM) | 0.57 ± 0.07 (≈ 1.39 µM) | 1.22 ± 0.09 (≈ 2.97 µM) | 7.89 ± 0.34 (≈ 19.2 µM) | 0.56 ± 0.09 (≈ 1.36 µM) | 0.54 ± 0.07 (≈ 1.32 µM) | 7.55 ± 0.25 (≈ 18.4 µM) | 12.9 ± 0.68 (≈ 31.4 µM) | 9.28 ± 0.58 (≈ 22.6 µM) | 0.56 to 17.3 (≈ 1.36 to 42.2 µM) | IC50 ([14]; ref 59 (Nam K. Nguyen et al.)): 11.4 ± 2.3 µM; IC50 ([14]; ref 60 (H. W. Ryu et al.)): 5 ± 0.1 µM; IC50 [13]: 7.55 to 29.3 µg/mL (≈ 18.4 to 71.3 µM); IC50 ([11]; IC50 α-glucosidase, equivalent in μM, converted from μg/mL): 4.63 ± 0.24 µM |
| Cc1c2ccncc2c(C)c2c1[nH]c1ccccc12 [Ellipticine, reference compound] | – | – | – | – | – | – | – | – | – | 0.34 ± 0.02 (≈ 1.38 µM) | 0.5 ± 0.03 (≈ 2.03 µM) | 0.48 ± 0.03 (≈ 1.95 µM) | – | – |
| C[C@@H]1[C@H](O)[C@@H](C)/C=C/C=C/CC/C=C/C=C/C=C/C=C/C(O[C@H]2O[C@H](C)[C@@H](O)[C@H](N)[C@@H]2O)CC2O[C@](O)(CC(O)C(O)CCC(O)CC(O)CC(O)CC(=O)O[C@H]1C)CC(O)C2C(=O)O (stereo partly drawn) [N, Nystatin, reference compound] | – | – | – | – | – | – | – | – | – | – | – | – | – | IC50 C. albicans ([1]; Fungus): 1.32 ± 0.05 µg/mL (≈ 1.43 µM) |
